Source: patent US6326471A, “Immunogenic peptides of prostate specific antigen” (priority 1998, dated 2001)

Legend:
[1] = system: anti-whole PSA antibody; test: ELISA activity of PSA peptide segments with anti-whole PSA antibody; assay type: binding; conditions: average of "wet" and "dry" ELISA methods; rank 1 = most reactive of 14 peptides
From the text: The amino acid sequence of PSA was divided into fourteen peptide segments. Thirteen of the peptides were 19-mers to 21-mers and one peptide was a 16-mer. […] Two of the peptides lacked both the proline and the hydrophobic-hydrophilic-hydrophobic region descriptors. The combined presence of the two descriptors correlated extremely well with the immunodominance of PSA peptide segments. The six highest scoring PSA peptides in terms of ELISA activity with anti-whole PSA antibody had both characteristics as did the eighth best. Also, the presence of a central proline in a segment lacking the adjacent hydrophobic, hydrophilic, and hydrophobic region characteristic successfully predicted four of five subdominant (moderately ELISA reactive) epitopes, while the absence of both the proline and the hydrophobic-hydrophilic-hydrophobic region characteristics in a peptide segment correctly predicted the two least ELISA reactive peptide segments.

[2] = system: antibody to the alpha subunit of the acetylcholine receptor; conditions: without added hydrophobic LI or AI residues; cited from earlier work

| Substance | ELISA activity rank [1] | antibody binding of the peptide alone [2] |
| --- | --- | --- |
| YSTCSGDSGGPLVCNGVLQG [PSA peptide 186-204] | 11 |  |
| NPDVK |  | could not bind antibody alone |
